Data from paper PMC11597150, “Antibacterial Activity of AXOTL-13, a Novel Peptide Identified from the Transcriptome of the Salamander Ambystoma mexicanum” (Pharmaceutics, 2024).
Converted amounts (≈) assume the structure as drawn. Where a SMILES comes first, the peptide text is derived from it.

What was measured:
[1] = tested on: Escherichia coli ATCC 25922; type: cell-based; details: for inhibitory effect on bacterial growth: microdilution in TSB, 8.7-70 μM, 20 h at 37 °C, absorbance 600 nm
Protocol: (§1) To establish the minimum inhibitory concentration (MIC), the microdilution-in-broth protocol for AMPs proposed by Wiegand et al. (2008) was performed. Bacterial strains Escherichia coli ATCC 25922 and Staphylococcus aureus ATCC 25923 were cultured in tryptic soy agar (TSA). For the assay, 5 bacterial colonies were taken, dissolved in tryptic soy broth (TSB), and incubated at 37 °C until reaching 0.5 on the McFarland scale (1 × 10^8 CFU/mL). Subsequently, a dilution was made to achieve a final concentration of 5 × 10^5 CFU/mL. A 96-well plate was used for the assay in which each bacterial strain was exposed to different concentrations of the peptides to be evaluated: 70 μM, 35 μM, 17.5 μM, and 8.7 μM. Different controls were employed: TSB medium served as the sterility control and blank; bacteria without treatment were utilized as the negative control; and bacteria exposed to the Ramosin peptide at 40 μM [31] and sodium hypochlorite at 0.06% were employed as positive controls. Each treatment was performed in triplicate, and each assay was carried out on two different days. The plate was incubated for 20 h at 37 °C in a Multiskan Sky (Thermo Fisher, Waltham, MA, USA), reading the absorbance at a wavelength of 600 nm every hour.
(§2) The results were read in two ways: an endpoint analysis in which the absorbances of the wells were read at 20 h of treatment, to determine the inhibitory effect of the peptide, and a bacterial growth kinetics analysis in which the behavior of the peptide throughout the assay was observed, identifying a bactericidal or bacteriostatic action.

[2] = tested on: Staphylococcus aureus ATCC 25923; assay: Broth microdilution MIC / growth inhibition; type: cell-based; details: microdilution in TSB, 8.7-70 μM, 20 h at 37 °C, absorbance 600 nm
Protocol: as §1, §2

Row | Compound | minimum inhibitory concentration (MIC) ([1]; ATCC 25922, 20 h) [µM] | inhibitory effect on bacterial growth [2] | inhibitory effect on bacterial growth [1]
1 | CC[C@H](C)[C@H](NC(=O)[C@H](CO)NC(=O)[C@H](Cc1ccccc1)NC(=O)CN)C(=O)N[C@@H](CO)C(=O)N[C@@H](CC(C)C)C(=O)N[C@@H](CCCCN)C(=O)N[C@@H](CCCNC(=N)N)C(=O)N[C@@H](CC(C)C)C(=O)N[C@@H](CCC(N)=O)C(=O)N[C@@H](CCCCN)C(=O)N[C@@H](CCSC)C(=O)N[C@@H](CC(C)C)C(=O)O [AXOTL-13] (H-GFSISLKRLQKML-OH) | 35 (≈ 53.2 µg/mL) | – | –
2 | Peptide 4766: 13-residue peptide LIGGQLGGLIKAL predicted from the Ambystoma mexicanum transcriptome, chemically synthesized | – | did not exert a complete inhibitory effect | did not exert a complete inhibitory effect
3 | Peptide 4767: 13-residue peptide YITGLIAPILKSL predicted from the Ambystoma mexicanum transcriptome, chemically synthesized | – | did not exert a complete inhibitory effect | did not exert a complete inhibitory effect
4 | Peptide 4768: 12-residue peptide VLGSILGALKAI predicted from the Ambystoma mexicanum transcriptome, chemically synthesized | – | did not exert a complete inhibitory effect | did not exert a complete inhibitory effect
5 | Peptide 4769: 13-residue peptide LHPLIGRVIGGVI predicted from the Ambystoma mexicanum transcriptome, chemically synthesized | – | did not exert a complete inhibitory effect | did not exert a complete inhibitory effect
6 | Peptide 4771: 13-residue peptide LLDTIGKIFGSLL predicted from the Ambystoma mexicanum transcriptome, chemically synthesized | – | did not exert a complete inhibitory effect | did not exert a complete inhibitory effect
